# Earlier results, collected in patent publication US11918665B2, “Method for dyeing keratinous material, comprising the use of an organosilicon compound, a colored effect pigment and a sealing reagent I” (Henkel AG & Co. KGaA, priority 2019, dated 2024).
# Conditions: 25° C.
solubility in water (in words),SMILES,solubility in water
highly soluble in water,"O=C([O-])C1=NN(c2ccc(S(=O)(=O)[O-])cc2)C(=O)C1N=Nc1ccc(S(=O)(=O)[O-])cc1.[Na+].[Na+].[Na+] (stereo not shown) [Acid Yellow 23, trisodium salt of 4,5-dihydro-5-oxo-1-(4-sulfophenyl)-4-((4-sulfophenyl)azo)-1H-pyrazole-3-carboxylic acid]",–
–,"O=C([O-])c1c(Cl)c(Cl)c(Cl)c(Cl)c1-c1c2c(Br)cc(=O)c(Br)c-2oc2c(Br)c(O)cc(Br)c12.O=C([O-])c1c(Cl)c(Cl)c(Cl)c(Cl)c1-c1c2c(Br)cc(=O)c(Br)c-2oc2c(Br)c(O)cc(Br)c12.[Na+].[Na+] [Acid Red 92, disodium salt of 3,4,5,6-tetrachloro-2-(1,4,5,8-tetrabromo-6-hydroxy-3-oxoxanthen-9-yl)benzoic acid]",greater than 10 g/L
–,"O=S(=O)([O-])c1ccc(N=Nc2c(O)ccc3ccccc23)cc1.[Na+] [Acid Orange 7, sodium salt of 4-[(2-hydroxy-1-naphthyl)azo]benzene sulphonate]",more than 7 g/L
–,"Nc1cc(S(=O)(=O)[O-])cc2cc(S(=O)(=O)[O-])c(N=Nc3ccccc3)c(O)c12.[Na+].[Na+] [Acid Red 33, disodium salt of 5-amino-4-hydroxy-3-(phenylazo)-naphthalene-2,7-disulphonate]",2500 µg/mL
